Source: ChEMBL document CHEMBL4507302, “Data for DCP probe TP-020” (2021)

Experiments:
[1] = target: Ribosomal protein S6 kinase beta-1 (Homo sapiens) (UniProt P23443); details: Compound concentration 1000.0 nM
[2] = target: 5-hydroxytryptamine receptor 2A (Homo sapiens) (UniProt P28223); details: Compound concentration 10.0 uM
[3] = target: Phosphatidylinositol 4,5-bisphosphate 3-kinase catalytic subunit alpha isoform (Homo sapiens) (UniProt P42336); details: Compound concentration 1000.0 nM
[4] = target: cGMP-dependent protein kinase 1 (Homo sapiens) (UniProt Q13976); details: Compound concentration 1000.0 nM
[5] = target: MAP kinase-activated protein kinase 5 (Homo sapiens) (UniProt Q8IW41); details: Compound concentration 1000.0 nM
[6] = target: Tyrosine-protein kinase TXK (Homo sapiens) (UniProt P42681); details: Compound concentration 1000.0 nM
[7] = target: Histamine H1 receptor (Homo sapiens) (UniProt P35367); details: Compound concentration 10.0 uM
[8] = target: Calcium/calmodulin-dependent protein kinase type II subunit delta (Homo sapiens) (UniProt Q13557); details: Compound concentration 1000.0 nM
[9] = target: Dual specificity tyrosine-phosphorylation-regulated kinase 2 (Homo sapiens) (UniProt Q92630); details: Compound concentration 1000.0 nM
Chain of Dual specificity tyrosine-phosphorylation-regulated kinase 2 (Homo sapiens) (Q92630 whole entry): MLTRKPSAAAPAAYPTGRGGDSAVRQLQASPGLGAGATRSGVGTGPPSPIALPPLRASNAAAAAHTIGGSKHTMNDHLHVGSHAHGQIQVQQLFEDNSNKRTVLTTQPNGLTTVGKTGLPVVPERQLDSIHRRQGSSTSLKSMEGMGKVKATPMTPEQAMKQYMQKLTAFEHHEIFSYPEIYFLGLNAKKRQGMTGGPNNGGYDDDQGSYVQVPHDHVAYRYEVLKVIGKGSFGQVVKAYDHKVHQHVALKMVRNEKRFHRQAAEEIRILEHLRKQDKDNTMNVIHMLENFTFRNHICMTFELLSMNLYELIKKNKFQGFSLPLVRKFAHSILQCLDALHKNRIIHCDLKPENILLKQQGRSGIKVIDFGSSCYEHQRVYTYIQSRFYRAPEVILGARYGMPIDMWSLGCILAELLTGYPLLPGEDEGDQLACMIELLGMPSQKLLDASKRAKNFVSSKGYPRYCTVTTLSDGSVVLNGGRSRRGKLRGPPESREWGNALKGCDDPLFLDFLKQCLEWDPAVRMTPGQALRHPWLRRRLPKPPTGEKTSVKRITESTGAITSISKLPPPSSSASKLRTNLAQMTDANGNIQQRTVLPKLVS

[10] = target: Phosphatidylinositol 4-phosphate 5-kinase type-1 alpha (Homo sapiens) (UniProt Q99755); details: Compound concentration 1000.0 nM
Chain of Phosphatidylinositol 4-phosphate 5-kinase type-1 alpha (Homo sapiens) (Q99755 whole entry): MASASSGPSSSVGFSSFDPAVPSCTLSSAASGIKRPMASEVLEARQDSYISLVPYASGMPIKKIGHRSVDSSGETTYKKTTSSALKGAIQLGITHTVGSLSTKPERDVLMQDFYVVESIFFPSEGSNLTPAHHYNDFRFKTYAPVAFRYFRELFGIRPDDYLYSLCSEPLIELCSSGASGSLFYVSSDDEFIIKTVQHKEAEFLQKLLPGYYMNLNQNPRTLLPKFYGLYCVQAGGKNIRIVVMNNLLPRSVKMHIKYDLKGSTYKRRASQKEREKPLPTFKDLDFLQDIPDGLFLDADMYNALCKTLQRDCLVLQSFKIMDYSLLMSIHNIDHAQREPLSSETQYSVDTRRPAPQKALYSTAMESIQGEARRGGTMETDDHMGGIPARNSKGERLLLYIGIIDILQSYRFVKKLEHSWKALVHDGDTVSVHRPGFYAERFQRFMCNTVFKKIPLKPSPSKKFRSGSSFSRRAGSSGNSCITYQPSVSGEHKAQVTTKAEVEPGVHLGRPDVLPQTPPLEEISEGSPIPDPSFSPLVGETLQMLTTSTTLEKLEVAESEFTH

[11] = target: Non-receptor tyrosine-protein kinase TYK2 (Homo sapiens) (UniProt P29597); details: Compound concentration 1000.0 nM
[12] = target: Mitogen-activated protein kinase kinase kinase 2 (Homo sapiens) (UniProt Q9Y2U5); details: Compound concentration 1000.0 nM
Chain of Mitogen-activated protein kinase kinase kinase 2 (Homo sapiens) (Q9Y2U5 whole entry): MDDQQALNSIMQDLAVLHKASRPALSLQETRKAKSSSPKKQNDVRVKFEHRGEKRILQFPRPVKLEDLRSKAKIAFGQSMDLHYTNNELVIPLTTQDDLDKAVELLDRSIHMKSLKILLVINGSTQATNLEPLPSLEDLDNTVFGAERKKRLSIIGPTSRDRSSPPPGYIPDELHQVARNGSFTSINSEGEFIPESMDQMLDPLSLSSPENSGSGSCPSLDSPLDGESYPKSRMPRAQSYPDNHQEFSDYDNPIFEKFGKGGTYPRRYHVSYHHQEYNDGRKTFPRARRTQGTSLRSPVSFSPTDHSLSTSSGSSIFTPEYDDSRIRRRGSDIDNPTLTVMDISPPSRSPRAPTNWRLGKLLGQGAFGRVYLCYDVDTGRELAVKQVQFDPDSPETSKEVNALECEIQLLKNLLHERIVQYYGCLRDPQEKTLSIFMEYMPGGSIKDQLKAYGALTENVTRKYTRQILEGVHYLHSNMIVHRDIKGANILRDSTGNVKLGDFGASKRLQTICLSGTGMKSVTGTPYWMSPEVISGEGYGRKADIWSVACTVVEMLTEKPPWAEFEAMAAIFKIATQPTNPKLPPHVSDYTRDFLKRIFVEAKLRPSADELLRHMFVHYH

[13] = target: Aurora kinase B (Homo sapiens) (UniProt Q96GD4); details: Compound concentration 1000.0 nM
Chain of Aurora kinase B (Homo sapiens) (Q96GD4 whole entry): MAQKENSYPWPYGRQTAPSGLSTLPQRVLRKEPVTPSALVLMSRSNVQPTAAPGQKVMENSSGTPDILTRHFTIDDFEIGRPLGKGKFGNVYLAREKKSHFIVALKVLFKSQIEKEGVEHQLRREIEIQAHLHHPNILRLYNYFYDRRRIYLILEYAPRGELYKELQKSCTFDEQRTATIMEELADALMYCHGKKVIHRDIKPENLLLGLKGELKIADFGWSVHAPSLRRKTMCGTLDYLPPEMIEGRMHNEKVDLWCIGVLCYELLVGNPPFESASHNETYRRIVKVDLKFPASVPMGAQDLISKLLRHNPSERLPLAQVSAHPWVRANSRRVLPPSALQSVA

[14] = target: Dual specificity mitogen-activated protein kinase kinase 1 (Homo sapiens) (UniProt Q02750); details: Compound concentration 1000.0 nM
[15] = target: Megakaryocyte-associated tyrosine-protein kinase (Homo sapiens) (UniProt P42679); details: Compound concentration 1000.0 nM
[16] = target: Serine/threonine-protein kinase 26 (Homo sapiens) (UniProt Q9P289); details: Compound concentration 1000.0 nM
[17] = target: Myosin-IIIa (Homo sapiens) (UniProt Q8NEV4); details: Compound concentration 1000.0 nM
[18] = target: Serine/threonine-protein kinase DCLK1 (Homo sapiens) (UniProt O15075); details: Compound concentration 1000.0 nM
[19] = target: Mitogen-activated protein kinase kinase kinase 10 (Homo sapiens) (UniProt Q02779); details: Compound concentration 1000.0 nM
[20] = target: Serine/threonine-protein kinase MRCK alpha (Homo sapiens) (UniProt Q5VT25); details: Compound concentration 1000.0 nM
[21] = target: Serine/threonine-protein kinase Nek6 (Homo sapiens) (UniProt Q9HC98); details: Compound concentration 1000.0 nM
[22] = target: Cyclin-dependent kinase 9 (Homo sapiens) (UniProt P50750); details: Compound concentration 1000.0 nM
[23] = target: Tyrosine-protein kinase Srms (Homo sapiens) (UniProt Q9H3Y6); details: Compound concentration 1000.0 nM
[24] = target: Serine/threonine-protein kinase Nek1 (Homo sapiens) (UniProt Q96PY6); details: Compound concentration 1000.0 nM
[25] = target: Protein kinase C delta type (Homo sapiens) (UniProt Q05655); details: Compound concentration 1000.0 nM
[26] = target: Serine/threonine-protein kinase PknB (Mycobacterium tuberculosis) (UniProt P9WI81); details: Compound concentration 1000.0 nM
[27] = target: Angiopoietin-1 receptor (Homo sapiens) (UniProt Q02763); details: Compound concentration 1000.0 nM
[28] = target: MAP/microtubule affinity-regulating kinase 3 (Homo sapiens) (UniProt P27448); details: Compound concentration 1000.0 nM
[29] = target: Serine/threonine-protein kinase MRCK beta (Homo sapiens) (UniProt Q9Y5S2); details: Compound concentration 1000.0 nM
[30] = target: Tyrosine-protein kinase receptor UFO (Homo sapiens) (UniProt P30530); details: Compound concentration 1000.0 nM
[31] = target: Serine/threonine-protein kinase NIM1 (Homo sapiens) (UniProt Q8IY84); details: Compound concentration 1000.0 nM
[32] = target: Dual specificity mitogen-activated protein kinase kinase 3 (Homo sapiens) (UniProt P46734); details: Compound concentration 1000.0 nM
Chain of Dual specificity mitogen-activated protein kinase kinase 3 (Homo sapiens) (P46734 whole entry): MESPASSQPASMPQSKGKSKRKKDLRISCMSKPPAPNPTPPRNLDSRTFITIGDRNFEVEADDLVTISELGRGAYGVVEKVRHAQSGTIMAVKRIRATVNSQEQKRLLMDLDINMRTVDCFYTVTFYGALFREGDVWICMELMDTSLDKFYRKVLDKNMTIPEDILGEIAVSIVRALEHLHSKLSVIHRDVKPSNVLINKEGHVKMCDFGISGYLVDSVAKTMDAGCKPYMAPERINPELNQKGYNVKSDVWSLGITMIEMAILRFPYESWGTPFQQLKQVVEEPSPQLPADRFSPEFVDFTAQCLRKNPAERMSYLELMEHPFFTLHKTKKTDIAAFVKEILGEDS

[33] = target: Alpha-1B adrenergic receptor (Homo sapiens) (UniProt P35368); details: Compound concentration 10.0 uM
[34] = target: Serine/threonine-protein kinase Nek9 (Homo sapiens) (UniProt Q8TD19); details: Compound concentration 1000.0 nM
[35] = target: Serine/threonine-protein kinase Nek4 (Homo sapiens) (UniProt P51957); details: Compound concentration 1000.0 nM
[36] = target: Serine/threonine-protein kinase TAO1 (Homo sapiens) (UniProt Q7L7X3); details: Compound concentration 1000.0 nM
[37] = target: LIM domain kinase 1 (Homo sapiens) (UniProt P53667); details: Compound concentration 1000.0 nM
Chain of LIM domain kinase 1 (Homo sapiens) (P53667 whole entry, looked up, the tested form may be a part): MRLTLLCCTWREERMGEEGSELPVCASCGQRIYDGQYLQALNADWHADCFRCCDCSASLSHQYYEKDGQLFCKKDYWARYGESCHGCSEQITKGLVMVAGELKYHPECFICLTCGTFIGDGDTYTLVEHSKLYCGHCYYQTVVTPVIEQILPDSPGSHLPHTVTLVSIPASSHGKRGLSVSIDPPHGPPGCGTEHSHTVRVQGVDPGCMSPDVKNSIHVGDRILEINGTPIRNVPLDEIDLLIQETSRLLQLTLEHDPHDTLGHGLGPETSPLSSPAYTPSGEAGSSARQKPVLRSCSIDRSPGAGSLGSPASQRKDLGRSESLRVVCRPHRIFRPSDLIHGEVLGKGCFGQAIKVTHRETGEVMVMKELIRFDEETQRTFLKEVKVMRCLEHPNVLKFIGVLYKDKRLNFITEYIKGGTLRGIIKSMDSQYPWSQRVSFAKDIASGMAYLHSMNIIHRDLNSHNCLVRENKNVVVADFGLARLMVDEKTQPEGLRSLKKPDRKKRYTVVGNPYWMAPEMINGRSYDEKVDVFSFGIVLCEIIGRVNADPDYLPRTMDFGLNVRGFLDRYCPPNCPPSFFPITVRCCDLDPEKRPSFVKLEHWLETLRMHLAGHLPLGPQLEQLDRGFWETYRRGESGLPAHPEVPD

[38] = tested on: Epidermal growth factor receptor (Homo sapiens), P00533 [UNDEFINED MUTATION]; details: Compound concentration 1000.0 nM
Chain of Epidermal growth factor receptor (Homo sapiens), P00533 [UNDEFINED MUTATION] (P00533 whole entry, looked up, change not shown): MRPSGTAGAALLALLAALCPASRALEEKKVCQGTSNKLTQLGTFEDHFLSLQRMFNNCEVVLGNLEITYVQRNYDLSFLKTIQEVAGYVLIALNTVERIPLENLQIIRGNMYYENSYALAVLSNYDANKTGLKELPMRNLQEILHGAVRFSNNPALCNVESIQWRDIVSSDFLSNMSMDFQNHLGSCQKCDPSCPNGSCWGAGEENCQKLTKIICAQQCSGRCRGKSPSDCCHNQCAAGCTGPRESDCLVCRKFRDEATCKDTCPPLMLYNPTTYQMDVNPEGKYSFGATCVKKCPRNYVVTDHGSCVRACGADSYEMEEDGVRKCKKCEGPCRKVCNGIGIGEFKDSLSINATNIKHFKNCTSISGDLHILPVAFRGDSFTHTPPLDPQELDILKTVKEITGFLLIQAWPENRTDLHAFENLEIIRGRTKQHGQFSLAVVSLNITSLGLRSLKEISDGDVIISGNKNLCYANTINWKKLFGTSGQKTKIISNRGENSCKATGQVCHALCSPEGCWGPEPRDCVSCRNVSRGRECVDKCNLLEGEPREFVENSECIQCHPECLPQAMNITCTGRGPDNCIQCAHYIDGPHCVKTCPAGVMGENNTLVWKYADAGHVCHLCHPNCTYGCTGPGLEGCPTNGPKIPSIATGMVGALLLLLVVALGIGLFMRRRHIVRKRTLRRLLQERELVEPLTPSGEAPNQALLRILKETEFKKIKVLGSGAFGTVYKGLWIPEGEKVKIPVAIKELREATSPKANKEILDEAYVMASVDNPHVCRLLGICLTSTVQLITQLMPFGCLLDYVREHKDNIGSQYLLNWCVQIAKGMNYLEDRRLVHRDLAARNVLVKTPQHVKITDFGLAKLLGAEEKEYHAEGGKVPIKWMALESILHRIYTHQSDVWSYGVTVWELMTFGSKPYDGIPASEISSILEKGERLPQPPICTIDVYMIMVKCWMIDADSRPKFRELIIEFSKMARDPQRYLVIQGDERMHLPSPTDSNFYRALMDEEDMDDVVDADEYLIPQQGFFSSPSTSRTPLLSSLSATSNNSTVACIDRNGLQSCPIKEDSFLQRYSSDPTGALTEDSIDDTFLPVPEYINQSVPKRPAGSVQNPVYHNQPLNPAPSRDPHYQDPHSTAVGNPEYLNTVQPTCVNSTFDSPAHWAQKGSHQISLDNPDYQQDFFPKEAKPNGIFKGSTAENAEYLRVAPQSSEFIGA

[39] = target: Serine/threonine-protein kinase PRP4 homolog (Homo sapiens) (UniProt Q13523); details: Compound concentration 1000.0 nM
[40] = target: Phosphatidylinositol 4,5-bisphosphate 3-kinase catalytic subunit gamma isoform (Homo sapiens) (UniProt P48736); details: Compound concentration 1000.0 nM
[41] = target: Serine/threonine-protein kinase LATS2 (Homo sapiens) (UniProt Q9NRM7); details: Compound concentration 1000.0 nM
[42] = target: Protein-tyrosine kinase 6 (Homo sapiens) (UniProt Q13882); details: Compound concentration 1000.0 nM
Chain of Protein-tyrosine kinase 6 (Homo sapiens) (Q13882 whole entry, looked up): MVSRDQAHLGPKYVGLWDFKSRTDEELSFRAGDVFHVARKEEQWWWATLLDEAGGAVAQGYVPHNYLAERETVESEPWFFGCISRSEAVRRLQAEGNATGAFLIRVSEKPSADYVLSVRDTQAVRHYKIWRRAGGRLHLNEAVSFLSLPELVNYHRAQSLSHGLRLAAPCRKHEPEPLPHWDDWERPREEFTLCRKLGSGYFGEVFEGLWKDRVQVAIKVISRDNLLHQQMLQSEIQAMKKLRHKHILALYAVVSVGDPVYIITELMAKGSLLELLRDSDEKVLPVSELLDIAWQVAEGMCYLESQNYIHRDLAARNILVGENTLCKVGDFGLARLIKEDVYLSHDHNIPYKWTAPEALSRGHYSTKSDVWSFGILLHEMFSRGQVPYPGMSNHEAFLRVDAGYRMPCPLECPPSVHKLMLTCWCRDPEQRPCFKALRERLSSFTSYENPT

[43] = tested on: Receptor-type tyrosine-protein kinase FLT3 (Homo sapiens), P36888 [K663Q]; details: Compound concentration 1000.0 nM
[44] = target: RAC-beta serine/threonine-protein kinase (Homo sapiens) (UniProt P31751); details: Compound concentration 1000.0 nM
[45] = target: BDNF/NT-3 growth factors receptor (Homo sapiens) (UniProt Q16620); details: Compound concentration 1000.0 nM

Nc1cnc(N2CCc3cc(S(=O)(=O)Nc4c(F)cc(Cl)cc4F)cc(N4CCCC4=O)c32)nc1
active: residual activity [24] 46%
inactive: residual activity [1] 83% | inhibition [2] -2.82% | residual activity [3] 76% | residual activity [4] 97% | residual activity [5] 92% | residual activity [6] 83% | inhibition [7] -2.69% | residual activity [8] 100% | residual activity [9] 89% | residual activity [10] 100% | residual activity [11] 100% | residual activity [12] 100% | residual activity [13] 98% | residual activity [14] 100% | residual activity [15] 100% | residual activity [16] 83% | residual activity [17] 77% | residual activity [18] 100% | residual activity [19] 75% | residual activity [20] 100% | residual activity [21] 100% | residual activity [22] 100% | residual activity [23] 88% | residual activity [25] 86% | residual activity [26] 96% | residual activity [27] 78% | residual activity [28] 100% | residual activity [29] 95% | residual activity [30] 69% | residual activity [31] 100% | residual activity [32] 100% | inhibition [33] 4.68% | residual activity [34] 98% | residual activity [35] 97% | residual activity [36] 80% | residual activity [37] 100% | residual activity [38] 63% | residual activity [39] 76% | residual activity [40] 81% | residual activity [41] 100% | residual activity [42] 100% | residual activity [43] 97% | residual activity [44] 100% | residual activity [45] 100%

Cn1nc(C(F)(F)F)cc1-c1cnc(N2CCc3cc(S(=O)(=O)Nc4c(F)cc(Cl)cc4F)cc(N4CCCC4=O)c32)nc1 [TP-020]
inactive: residual activity [1] 78% | inhibition [2] 8.54% | residual activity [3] 100% | residual activity [4] 87% | residual activity [5] 95% | residual activity [6] 100% | inhibition [7] 10.2% | residual activity [8] 99% | residual activity [9] 87% | residual activity [10] 100% | residual activity [11] 90% | residual activity [12] 95% | residual activity [13] 86% | residual activity [14] 95% | residual activity [15] 91% | residual activity [16] 73% | residual activity [17] 100% | residual activity [18] 93% | residual activity [19] 93% | residual activity [20] 100% | residual activity [21] 100% | residual activity [22] 100% | residual activity [23] 100% | residual activity [24] 100% | residual activity [25] 95% | residual activity [26] 100% | residual activity [27] 99% | residual activity [29] 94% | residual activity [30] 93% | residual activity [31] 80% | residual activity [32] 82% | inhibition [33] 4.33% | residual activity [34] 100% | residual activity [35] 72% | residual activity [36] 99% | residual activity [37] 100% | residual activity [38] 100% | residual activity [39] 100% | residual activity [40] 88% | residual activity [41] 93% | residual activity [42] 90% | residual activity [43] 100% | residual activity [44] 100% | residual activity [45] 75%
active: residual activity [28] 12%
